From patent publication US10023615B2, “Efficient transport into white blood cells” (priority 2008, dated 2018)
Entries after “also recorded” stand apart in the source; their conditions may differ. Ends that are not written are not given here.

Tests used:
[1] = system: liver, Kupffer cells; test: Immunostaining against XG-102 in the liver after i.v. injection; assay type: in vivo, rat; conditions: 1 mg/kg i.v., 24 hours
Description: Revelation was done using DAB substrate.

[2] = system: Aβ1-40 and Aβ1-42 levels; test: Aβ1-40 and Aβ1-42 ELISA in brain homogenate fractions and CSF of hAPP Tg mice; assay type: in vivo, mouse
Experimental: a) METHODS • i) Introduction • The study was designed to evaluate the efficacy of the test substance (XG-102, SEQ ID NO: 233) on behavioral, biochemical and histological markers using 5 months (±2 weeks) old female hAPP Tg mice. Therefore, mice were treated every two or three weeks up to 4 months and in the end of the treatment period behavior was evaluated in the Morris Water Maze. At sacrifice brain, CSF and blood were collected. Aβ40 and Aβ42 levels were determined in four different brain homogenate fractions as well as in CSF of Tg mice. Plaque load was quantified in the cortex and the hippocampus of 8 Tg animals per treatment group.
iv) Treatment • […] female hAPP transgenic mice were treated with either 0.1 mg/kg b.w./every two weeks or 10 mg/kg b.w./every three weeks of the test substance XG-102 (SEQ ID NO: 233) in two different dosages (n=12/group) or treated with the vehicle (n=12) s.c. once every three weeks over four months.
vi) Tissue Sampling • At the end of the treatment period, and following all behavioral testing, all remaining mice (n=28) were sacrificed. Therefore, all mice were sedated by standard inhalation anesthesia (Isofluran, Baxter) as described in SOP MET030. Cerebrospinal fluid (CSF) was obtained by blunt dissection and exposure of the foramen magnum. Upon exposure, a Pasteur pipette was inserted to the approximate depth of 0.3-1 mm into the foramen magnum. CSF was collected by suctioning and capillary action until flow fully ceases. Two aliquots of each sample were immediately frozen and kept at −80° C. until ready for further analysis with ELISA technique. After CSF sampling, each mouse was placed in dorsal recumbence, thorax was opened and a 26-gauge needle attached to a 1 cc syringe was inserted into the right cardiac ventricular chamber. Light suction was applied to the needle and blood was collected into EDTA and consequently used to obtain plasma. […]
vii) Determination of Aβ1-40 and Aβ1-42 • In four different brain homogenate fractions of each Tg mouse as well as in CSF samples the Aβ1-40 and Aβ1-42 levels were evaluated with ELISA technique. […]

[3] = system: db/db mice; test: db/db mice model of type 2 diabetes, chronic treatment; assay type: in vivo, mouse; conditions: 10 mg/kg
[4] = system: primary cultured macrophages; test: Incorporation of XG-102 into primary cultured macrophages, antibody detection; assay type: cell-based; conditions: incubated and extensively washed; specific antibody
Experimental: FIG. 5: (A): Primary cultured macrophages were incubated with XG-102 (SEQ ID NO: 233) and extensively washed. […] (B): Mice were injected i.v. with 0.1 mg/kg FITC-D-TAT (SEQ ID NO: 4 plus FITC) and were sacrificed 24 hours later with PAF perfusion through the heart. Slices were obtained after cryoprotection using cryostat.

For “dqsrpvqpflnIttprkprpprrrqrrkkrg (DQSRPVQPFLNLTTPRKPRPPRRRQRRKKRG; not fully specified (some residues); printed as dqsrpvqpflnIttprkprpprrrqrrkkrg) [XG-102]”, the accumulation in liver [1] was “pronounced accumulation of XG-102 in the liver, and especially, in the Kupffer cells”, the “Aβ1-42 levels in Triton X-100 fraction” value ([2]; 0.1 mg/kg) was “a significant reduction compared to the vehicle group; also recorded: a decrease in the Triton X-100 fraction” and the “CSF Aβ1-40 and Aβ1-42 levels” value ([2]; 0.1 and 10 mg/kg) was “significantly decreased in CSF compared to vehicle group”. The “brain homogenate Aβ1-40 levels” value ([2]; four brain homogenate fractions) was “did not affect brain homogenate Aβ1-40 levels”, the “plasma levels of insulin, MCP-1, IL-6, tPAI-1, TNF” value ([3]; day 57, 77 and 108) was “no significant effects” and the plasma resistin ([3]; day 77 and 108) was “significantly higher”. The “24 hour food and water intake, urine and faeces production (metabolic cages)” value ([3]; study day 68) was “no significant effects” and the incorporation into cells [4] was “strongly incorporated into primary macrophages”.
